Measurements as given in US20010056184A1, “Pipecolinic acid derivatives, method of manufacturing the same and therapeutic agents containing these compounds” (priority 2000, published 2001).

Key:
Format in all cases: biochemical
[1] = target: T1, human fibroblasts derived MMP-1 (type I collagenase) (Homo sapiens, UniProt P03956); assay: MMP-1 (type I collagenase) inhibitory activities, fluorogenic substrate enzyme assay; conditions: for inhibition at 10 µM: at 10^−5M, NE means no effect, read-out: MMP-1 inhibition percent; for IC50: 37° C., 4 h, substrate 10 μM
T1 construct: human fibroblasts derived MMP-1 (Yagai Co. Ltd.) as enzyme; purchased Yagai Co. Ltd; host or cells: human fibroblasts
T1 sequence (P03956 100-469): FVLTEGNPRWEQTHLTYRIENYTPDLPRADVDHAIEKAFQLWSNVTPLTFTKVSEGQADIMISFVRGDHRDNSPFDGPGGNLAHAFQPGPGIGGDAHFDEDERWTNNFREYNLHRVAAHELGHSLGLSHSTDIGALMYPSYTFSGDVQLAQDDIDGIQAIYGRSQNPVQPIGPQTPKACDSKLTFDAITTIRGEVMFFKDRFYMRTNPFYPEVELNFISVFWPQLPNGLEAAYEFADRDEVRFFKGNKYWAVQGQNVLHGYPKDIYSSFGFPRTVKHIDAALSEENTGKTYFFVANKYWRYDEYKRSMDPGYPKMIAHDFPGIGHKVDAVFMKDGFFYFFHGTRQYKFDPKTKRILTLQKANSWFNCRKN
Procedure: Examination 1: MMP-1 (type I collagenase) inhibitory activities.
Inhibitory activities of MMP-1 (type I collagenase) activities were estimated by enzyme assay using human fibroblasts derived MMP-1 (Yagai Co. Ltd.) as enzyme, and MOCAc-Pro-Leu-Gly-Leu-A2pr(Dnp)-Ala-Arg-NH2 (Peptide Research Center, 3163-v) as substrate. Thus, MMP-1 (0.01 U/ml), test compound (10^−10˜10^−5 M), and the substrate (10 μM) were incubated in 50 mM Tris-HCl buffer (pH 7.4) containing 0.2M NaCl, 10 mM CaCl2, 0.02% NaN3, and 0.05% Brij 35 at 37° C. for 4 h. The reaction was stopped by adding of 4 volumes of sodium acetate buffer (pH 4.0), and the degradation of substrate was calculated by measurement with a fluorescence intensity (λ ex 328 nm, λ em 393 nm). Inhibition of degradation of substrate in the presence of compound was determined by comparison with the degradation percent of substrate in the absence of compound, and concentration of 50% inhibition (IC50 value) was calculated.

MMP-2 (gelatinase A) = target: T2, MMP-2 (gelatinase A) (Homo sapiens, UniProt P08253); assay: MMP-2 (gelatinase A) inhibitory activities, fluorogenic substrate enzyme assay; conditions: 42° C., 2 h, substrate 10 μM
T2 construct: made in house; host or cells: COS-1 cells (secreted into culture medium)
T2 sequence (P08253 110-660): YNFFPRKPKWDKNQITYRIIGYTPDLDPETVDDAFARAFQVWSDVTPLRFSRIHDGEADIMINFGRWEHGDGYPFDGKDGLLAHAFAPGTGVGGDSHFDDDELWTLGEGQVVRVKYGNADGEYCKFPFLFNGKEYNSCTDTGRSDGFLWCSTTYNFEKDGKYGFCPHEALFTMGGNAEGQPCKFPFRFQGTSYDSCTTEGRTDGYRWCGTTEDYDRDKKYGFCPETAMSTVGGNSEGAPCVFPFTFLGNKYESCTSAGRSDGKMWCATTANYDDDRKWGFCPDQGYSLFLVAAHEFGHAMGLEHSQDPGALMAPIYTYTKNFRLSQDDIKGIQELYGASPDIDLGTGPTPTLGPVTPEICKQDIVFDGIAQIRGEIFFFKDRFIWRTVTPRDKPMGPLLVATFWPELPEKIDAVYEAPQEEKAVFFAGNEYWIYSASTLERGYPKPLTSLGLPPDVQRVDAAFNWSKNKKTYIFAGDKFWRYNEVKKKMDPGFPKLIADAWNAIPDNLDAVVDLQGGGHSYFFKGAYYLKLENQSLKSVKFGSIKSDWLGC
Procedure: (§1) Examination 2: MMP-2 (gelatinase A) and MMP-9 (gelatinase B) inhibitory activities.
(§2) Pro MMP-2 was obtained from culture medium separated from human pro-MMP-2 cDNA tranfected COS-1 cells. Pro MMP-2 activated by 1 mM (4-aminophenyl) mercury acetic acid and MMP-9, derived human fibrosarcome (Yagai Co. Ltd.), were used as enzyme respectively. Inhibition of both enzyme activities were estimated by enzyme assay using MOCAc-Pro-Leu-Gly-Leu-A2pr(Dnp)-Ala-Arg-NH2 (Peptide Research Center, 3163-v) as substrate. Thus, MMP-2 or MMP-9 (0.01 U/ml), test compound (several concentrations), and the substrate (10 μM) were incubated in 50 mM Tris - HCl buffer (pH 7.4) containing 0.2M NaCl, 10 mM CaCl2, 0.02% NaN3, and 0.05% Brij 35 at 42° C. for 2 h (MMP-2), 3 h (MMP-9) respectively. Inhibition of degradation of substrate in the presence of compound was determined by comparison with the degradation of substrate in the absence of compound, and concentration of 50% inhibition (IC50 value) was calculated.

MMP-9 (gelatinase B) = target: T3, MMP-9 (gelatinase B) (Homo sapiens, UniProt P14780); assay: MMP-9 (gelatinase B) inhibitory activities, fluorogenic substrate enzyme assay; conditions: for IC50: 42° C., 3 h, substrate 10 μM
T3 construct: MMP-9, derived human fibrosarcome (Yagai Co. Ltd.), were used as enzyme respectively; purchased Yagai Co. Ltd; host or cells: human fibrosarcoma
T3 sequence (P14780 94-707): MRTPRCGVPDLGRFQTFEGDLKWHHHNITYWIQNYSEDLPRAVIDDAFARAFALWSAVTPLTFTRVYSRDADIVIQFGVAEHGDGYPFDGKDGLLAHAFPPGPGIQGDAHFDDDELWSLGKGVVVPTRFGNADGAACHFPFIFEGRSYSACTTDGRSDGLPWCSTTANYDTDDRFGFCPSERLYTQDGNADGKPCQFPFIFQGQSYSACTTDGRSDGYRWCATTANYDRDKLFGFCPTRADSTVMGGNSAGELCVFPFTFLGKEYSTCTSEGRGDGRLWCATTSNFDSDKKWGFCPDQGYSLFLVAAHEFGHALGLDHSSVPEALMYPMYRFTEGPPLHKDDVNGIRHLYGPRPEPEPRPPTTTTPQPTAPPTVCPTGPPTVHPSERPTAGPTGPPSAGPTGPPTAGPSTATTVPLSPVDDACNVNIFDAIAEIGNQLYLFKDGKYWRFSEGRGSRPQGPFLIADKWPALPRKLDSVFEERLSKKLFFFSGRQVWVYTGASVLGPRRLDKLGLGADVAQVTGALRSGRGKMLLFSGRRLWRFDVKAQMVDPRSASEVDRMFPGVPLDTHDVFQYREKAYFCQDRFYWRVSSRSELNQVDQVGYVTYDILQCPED
Procedure: as §1, §2

Δ MT1-MMP (Δ MMP-14) = target: T4, Δ MT1-MMP (Δ MMP-14) (Homo sapiens, UniProt P50281); assay: Δ MT1-MMP (Δ MMP-14) inhibitory activities, fluorogenic substrate enzyme assay; conditions: 37° C., 30 min, substrate 10 μM; read-out: ΔMMP-14 IC50
T4 construct: ProMT1-MMP cDNA encoded extracellular domain of pro Δ MT1-MMP was tranfected E. coli BL21DE3; made in house; host or cells: E. coli BL21DE3 (inclusion bodies, 8M urea, ion exchange)
From the text: Examination 3: Δ MT1-MMP (Δ MMP-14) inhibitory activities.
ProMT1-MMP cDNA encoded extracellular domain of pro Δ MT1-MMP was tranfected E. coli BL21DE3, pro Δ MT1-MMP collected as inclusion body was solved using 8M urea, and it was pulified by ion exchenge column chlomatography. Inhibition of enzyme activities were estimated by enzyme assay using activated Δ MT1-MMP, obtained from activation of pro Δ MT1-MMP by 10 μ/ml tripsine, and MOCAc-Pro-Leu-Gly-Leu-A2pr(Dnp)-Ala-Arg-NH2 (Peptide Research Center, 3163-v) as substrate. Thus, Δ MT1-MMP, test compound (several concentrations), and the substrate (10 μM) were incubated in 50 mM Tris - HCl buffer (pH 7.4) containing 0.2M NaCl, 10 mM CaCl2, 0.02% NaN3, 0.05% Brij 35, and 10 μM leuipeputine at 37° C. for 30 min. The reaction was stopped by adding of 4 volumes of sodium acetate buffer (pH 4.0), and the degradation of substrate was calculated by measurement with a fluorescence intensity (λ ex 328 nm, λ em 393 nm). Inhibition of degradation of substrate in the presence of compound was determined by comparison with the degradation of substrate in the absence of compound, and concentration of 50% inhibition (IC50 value) was calculated.

Compound	inhibition at 10 µM [1]	IC50 (MMP-2 (gelatinase A))	IC50 (MMP-9 (gelatinase B))	IC50 (Δ MT1-MMP (Δ MMP-14))	IC50 [1]	inhibition at 10 µM (MMP-9 (gelatinase B); at 10^−5M, read-out: MMP-9 inhibition percent)
COc1ccc(S(=O)(=O)N2CC[C@@H](NC(=O)CCC(C)C)C[C@@H]2C(=O)NO)cc1 [Compound 45, (2R, 4R)-2-Hydroxyaminocarbonyl-1-(4-methoxybenzenesulfonyl)-4-(4-methylpentanoylamino)-piperidine]	45.3%	1.7 nM	1.4 nM	16 nM	–	–
COc1ccc(OCCCCC(=O)N[C@@H]2CCN(S(=O)(=O)c3ccc(OC)cc3)[C@@H](C(=O)NO)C2)cc1 [Compound 46, (2R, 4R)-2-Hydroxyaminocarbonyl-1-(4-methoxybenzenesulfonyl)-4-[5-(4-methoxyphenoxy)pentanoylamino]-piperidine]	–	1.5 nM	0.88 nM	4.3 nM	7600 nM	–
COc1ccc(C(=O)N[C@@H]2CCN(S(=O)(=O)c3ccc(OC)cc3)[C@@H](C(=O)NO)C2)cc1 [Compound 47, (2R, 4R)-2-Hydroxyaminocarbonyl-1-(4-methoxybenzenesulfonyl)-4-(4-methoxybenzoylamino)-piperidine]	–	1.7 nM	1.3 nM	3.2 nM	5500 nM	–
COc1ccc(C(=O)N[C@@H]2CCN(S(=O)(=O)c3ccc(-c4ccc(OC)cc4)cc3)[C@@H](C(=O)NO)C2)cc1 [Compound 48, (2R, 4R)-2-Hydroxyaminocarbonyl-4-(4-methoxybenzoylamino)-1-[4-(4-methoxyphenyl)benzenesulfonyl]-piperidine]	35.5%	0.55 nM	0.4 nM	310 nM	–	–
COc1ccc(C(=O)N[C@@H]2CCN(S(=O)(=O)c3cccs3)[C@@H](C(=O)NO)C2)cc1 [Compound 50, (2R, 4R)-2-Hydroxyaminocarbonyl-4-(4-methoxybenzoylamino)-1-(2-thiophenesulfonyl)-piperidine]	–	73 nM	44 nM	35 nM	8400 nM	–
CC(C)CCC(=O)N[C@@H]1CCN(S(=O)(=O)c2cccs2)[C@@H](C(=O)NO)C1 [Compound 51, (2R, 4R)-2-Hydroxyaminocarbonyl-4-(4-methylpentanoylamino)-1-(2-thiophenesulfonyl)-piperidine]	–	80 nM	75 nM	31 nM	6.5 nM	–
COc1ccc(-c2ccc(S(=O)(=O)N3CC[C@@H](NCc4ccccc4)C[C@@H]3C(=O)NO)cc2)cc1 [Compound 56, (2R, 4R)-4-Benzylamino-2-hydroxyaminocarbonyl-1-[4-(4-methoxyphenyl)benzenesulfonyl]-piperidine]	–	0.49 nM	0.36 nM	16 nM	1300 nM	–
COc1ccc(-c2ccc(S(=O)(=O)N3CC[C@@H](NC(=O)c4ccccc4)C[C@@H]3C(=O)NO)cc2)cc1 [Compound 59, (2R, 4R)-4-Benzoylamino-2-hydroxyaminocarbonyl-1-[4-(4-methoxyphenyl)benzenesulfonyl]-piperidine]	57.6%	180 nM	11 nM	95 nM	–	–

Second part, the molecule after the results:

inhibition at 10 µM [1]	IC50 (MMP-2 (gelatinase A))	IC50 (MMP-9 (gelatinase B))	IC50 (Δ MT1-MMP (Δ MMP-14))	IC50 [1]	inhibition at 10 µM (MMP-9 (gelatinase B); at 10^−5M, read-out: MMP-9 inhibition percent)	Compound
–	0.25 nM	0.26 nM	130 nM	2600 nM	–	COc1ccc(-c2ccc(S(=O)(=O)N3CC[C@@H](NC(=O)CCC(C)C)C[C@@H]3C(=O)NO)cc2)cc1 [Compound 49, (2R, 4R)-2-Hydroxyaminocarbonyl-1-[4-(4-methoxyphenyl)benzenesulfonyl]-4-(4-methylpentanoylamino)-piperidine]
48.9%	210 nM	420 nM	79 nM	–	–	COc1ccc(-c2cccc(S(=O)(=O)N3CC[C@@H](NC(=O)CCC(C)C)C[C@@H]3C(=O)NO)c2)cc1 [Compound 52, (2R, 4R)-2-Hydroxyaminocarbonyl-1-[3-(4-methoxyphenyl)benzenesulfonyl]-4-(4-methylpentanoylamino)-piperidine]
53%	960 nM	6900 nM	2000 nM	–	–	CC(C)CCC(=O)N[C@@H]1CCN(S(=O)(=O)c2cccc(-c3ccc(O)cc3)c2)[C@@H](C(=O)NO)C1 [Compound 53, (2R, 4R)-2-Hydroxyaminocarbonyl-1-[3-(4-hydroxyphenyl)benzenesulfonyl]-4-(4-methylpentanoylamino)-piperidine]
45.8%	380 nM	1800 nM	200 nM	–	–	COc1ccc(-c2ccccc2S(=O)(=O)N2CC[C@@H](NC(=O)CCC(C)C)C[C@@H]2C(=O)NO)cc1 [Compound 54, (2R, 4R)-2-Hydroxyaminocarbonyl-1-[2-(4-methoxyphenyl)benzenesulfonyl]-4-(4-methylpentanoylamino)-piperidine]
29.5%	2400 nM	–	3000 nM	–	34.8%	CC(C)CCC(=O)N[C@@H]1CCN(S(=O)(=O)c2ccccc2-c2ccc(O)cc2)[C@@H](C(=O)NO)C1 [Compound 55, (2R, 4R)-2-Hydroxyaminocarbonyl-1-[2-(4-hydroxyphenyl)benzenesulfonyl]-4-(4-methylpentanoylamino)-piperidine]
–	1.8 nM	11 nM	100 nM	460 nM	–	CC(C)CCC(=O)N[C@@H]1CCN(S(=O)(=O)c2ccc(-c3ccc(O)cc3)cc2)[C@@H](C(=O)NO)C1 [Compound 57, (2R, 4R)-2-Hydroxyaminocarbonyl-1-[4-(4-hydroxyphenyl)benzenesulfonyl]-4-(4-methylpentanoylamino) piperidine]
